Here are results for 15 compounds from US8653098B2, “Pyrazolopyridine PI3K inhibitor compounds and methods of use” (Genentech, Inc., priority 2008, dated 2014).

The EC50 is the concentration giving half of the maximal effect. A low value points to an effect from little substance. For orientation: IC50 means the concentration at which inhibition is half-maximal.

Assay [1] relates to PC3. Kind of assay: In Vitro Cell Proliferation Assay (CellTiter-Glo), PC3. The class given is cell-based. The settings on record: Homo sapiens, PC-3; PC3, Prostate, mutation status PTEN. The protocol:
(§1) The in vitro potency of Formula I exemplary compounds was measured by the cell proliferation assay, CellTiter-Glo® Luminescent Cell Viability Assay, commercially available from Promega Corp., Madison, Wis. (Example 33). This homogeneous assay method is based on the recombinant expression of Coleoptera luciferase (U.S. Pat. No. 5,583,024; U.S. Pat. No. 5,674,713; U.S. Pat. No. 5,700,670) and determines the number of viable cells in culture based on quantitation of the ATP present, an indicator of metabolically active cells (Crouch et al (1993) J. Immunol. Meth. 160:81-88; U.S. Pat. No. 6,602,677).
(§2) format, making it amenable to automated high-throughput screening (HTS) (Cree et al (1995) Anti Cancer Drugs 6:398-404). The homogeneous assay procedure involves adding the single reagent (CellTiter-Glo® Reagent) directly to cells cultured in serum-supplemented medium. Cell washing, removal of medium and multiple pipetting steps are not required. The system detects as few as 15 cells/well in a 384-well format in 10 minutes after adding reagent and mixing.
(§3) The homogeneous “add-mix-measure” format results in cell lysis and generation of a luminescent signal proportional to the amount of ATP present. The amount of ATP is directly proportional to the number of cells present in culture. The CellTiter-Glo® Assay generates a “glow-type” luminescent signal, produced by the luciferase reaction, which has a half-life generally greater than five hours, depending on cell type and medium used. Viable cells are reflected in relative luminescence units (RLU). The substrate, Beetle Luciferin, is oxidatively decarboxylated by recombinant firefly luciferase with concomitant conversion of ATP to AMP and generation of photons. The extended half-life eliminates the need to use reagent injectors and provides flexibility for continuous or batch mode processing of multiple plates. This cell proliferation assay an be used with various multiwell formats, e.g. 96 or 384 well format. Data can be recorded by luminometer or CCD camera imaging device. The luminescence output is presented as relative light units (RLU), measured over time.
(§4) Efficacy of Formula I compounds were measured by a cell proliferation assay employing the following protocol (Promega Corp. Technical Bulletin TB288; Mendoza et al (2002) Cancer Res. 62:5485-5488):
(§5) 1. An aliquot of 100 n1 of cell culture containing about 10^4 cells (PC3, Detroit562, or MDAMB361.1) in medium was deposited in each well of a 384-well, opaque-walled plate.
(§6) 2. Control wells were prepared containing medium and without cells.
(§7) 3. The compound was added to the experimental wells and incubated for 3-5 days.
(§8) 4. The plates were equilibrated to room temperature for approximately 30 minutes.
(§9) 5. A volume of CellTiter-Glo Reagent equal to the volume of cell culture medium present in each well was added.
(§10) 6. The contents were mixed for 2 minutes on an orbital shaker to induce cell lysis.
(§11) 7. The plate was incubated at room temperature for 10 minutes to stabilize the luminescence signal.
(§12) 8. Luminescence was recorded and reported in graphs as RLU=relative luminescence units.
(§13) Alternatively, cells were seeded at optimal density in a 96 well plate and incubated for 4 days in the presence of test compound. Alamar Blue™ was subsequently added to the assay medium, and cells were incubated for 6 h before reading at 544 nm excitation, 590 nm emission. EC50 values were calculated using a sigmoidal dose response curve fit.
(§14) The anti-proliferative effects of Formula I exemplary compounds were measured by the CellTiter-Glo® Assay against various tumor cell lines, including the following: […]
Background: ATP-based viability assays read luminescence as a measure of living cells.

For assay [2], the system named is MDA-MB-361.1. Kind of assay: In Vitro Cell Proliferation Assay (CellTiter-Glo), MDA-MB-361.1. The class given is cell-based. Conditions: MDA-MB-361.1, Breast, mutation status PI3K. The method, then: as §1, §2, §3, §4, §5, §6, §7, §8, §9, §10, §11, §12, §13, §14
Assay [3] addresses T1, p110 alpha PI3K (Homo sapiens, UniProt P42336).
T1 construct: purchased Upstate Cell Signaling Solutions, Charlottesville, Va
Briefly: p110α (alpha) PI3K Binding Assay (fluorescence polarization; alternatively radiometric). Conditions: tested for PI3K activity according to the methods of this invention. The class given is biochemical. The method, then: Binding Assays: Initial polarization experiments were performed on an Analyst HT 96-384 (Molecular Devices Corp, Sunnyvale, Calif.). Samples for fluorescence polarization affinity measurements were prepared by addition of 1:3 serial dilutions of p110 alpha PI3K (Upstate Cell Signaling Solutions, Charlottesville, Va.) starting at a final concentration of 20 ug/mL in polarization buffer (10 mM Tris pH 7.5, 50 mM NaCl, 4 mM MgCl2, 0.05% Chaps, and 1 mM DTT) to 10 mM PIP2 (Echelon-Inc., Salt Lake City, Utah.) final concentration. After an incubation time of 30 minutes at room temperature, the reactions were stopped by the addition of GRP-1 and PIP3-TAMRA probe (Echelon-Inc., Salt Lake City, Utah.) 100 nM and 5 nM final concentrations respectively. […] This experiment also establishes the appropriate protein concentration to use in subsequent competition experiments with inhibitors.
Inhibitor IC50 values were determined by addition of the 0.04 mg/mL p110 alpha PI3K (final concentration) combined with PIP2 (10 mM final concentration) to wells containing 1:3 serial dilutions of the antagonists in a final concentration of 25 mM ATP (Cell Signaling Technology, Inc., Danvers, Mass.) in the polarization buffer. After an incubation time of 30 minutes at room temperature, the reactions were stopped by the addition of GRP-1 and PIP3-TAMRA probe (Echelon-Inc., Salt Lake City, Utah.) 100 nM and 5 nM final concentrations respectively.
Alternatively, inhibition of PI3K was determined in a radiometric assay using purified, recombinant enzyme and ATP at a concentration of 1 uM. The Formula I compound was serially diluted in 100% DMSO. The kinase reaction was incubated for 1 h at room temperature, and the reaction was terminated by the addition of PBS. IC50 values were subsequently determined using sigmoidal dose-response curve fit (variable slope).
A general note: In fluorescence polarisation assays a small probe gives low polarisation when free and higher when bound to something large.

T1 sequence (P42336 whole entry): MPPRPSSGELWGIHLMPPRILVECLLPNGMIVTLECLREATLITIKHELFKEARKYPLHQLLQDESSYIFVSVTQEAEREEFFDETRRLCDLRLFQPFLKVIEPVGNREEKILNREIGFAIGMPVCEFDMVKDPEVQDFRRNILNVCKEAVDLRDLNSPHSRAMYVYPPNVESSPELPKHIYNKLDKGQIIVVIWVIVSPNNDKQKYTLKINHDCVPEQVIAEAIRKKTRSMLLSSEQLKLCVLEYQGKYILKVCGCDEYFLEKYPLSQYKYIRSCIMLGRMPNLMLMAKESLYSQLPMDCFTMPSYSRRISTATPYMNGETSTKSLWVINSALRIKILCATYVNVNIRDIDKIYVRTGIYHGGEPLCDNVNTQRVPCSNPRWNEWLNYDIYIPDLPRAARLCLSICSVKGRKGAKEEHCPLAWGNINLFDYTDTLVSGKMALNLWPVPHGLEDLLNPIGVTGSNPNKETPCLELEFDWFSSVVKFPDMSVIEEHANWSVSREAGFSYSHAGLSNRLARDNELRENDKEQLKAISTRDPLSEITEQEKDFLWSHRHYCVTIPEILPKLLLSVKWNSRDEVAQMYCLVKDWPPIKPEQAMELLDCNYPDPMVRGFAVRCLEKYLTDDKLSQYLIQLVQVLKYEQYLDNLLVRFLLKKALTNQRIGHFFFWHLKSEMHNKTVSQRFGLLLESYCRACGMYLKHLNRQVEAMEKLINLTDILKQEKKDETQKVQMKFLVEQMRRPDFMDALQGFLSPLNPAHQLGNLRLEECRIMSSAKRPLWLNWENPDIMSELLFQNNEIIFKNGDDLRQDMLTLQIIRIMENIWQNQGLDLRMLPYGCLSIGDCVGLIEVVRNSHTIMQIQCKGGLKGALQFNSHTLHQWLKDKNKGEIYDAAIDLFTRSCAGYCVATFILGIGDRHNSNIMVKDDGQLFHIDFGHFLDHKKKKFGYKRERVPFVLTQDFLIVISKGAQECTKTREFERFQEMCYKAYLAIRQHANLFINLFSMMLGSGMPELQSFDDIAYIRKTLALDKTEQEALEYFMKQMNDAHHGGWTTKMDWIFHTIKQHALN
T1 sequence (P27986 whole entry partner): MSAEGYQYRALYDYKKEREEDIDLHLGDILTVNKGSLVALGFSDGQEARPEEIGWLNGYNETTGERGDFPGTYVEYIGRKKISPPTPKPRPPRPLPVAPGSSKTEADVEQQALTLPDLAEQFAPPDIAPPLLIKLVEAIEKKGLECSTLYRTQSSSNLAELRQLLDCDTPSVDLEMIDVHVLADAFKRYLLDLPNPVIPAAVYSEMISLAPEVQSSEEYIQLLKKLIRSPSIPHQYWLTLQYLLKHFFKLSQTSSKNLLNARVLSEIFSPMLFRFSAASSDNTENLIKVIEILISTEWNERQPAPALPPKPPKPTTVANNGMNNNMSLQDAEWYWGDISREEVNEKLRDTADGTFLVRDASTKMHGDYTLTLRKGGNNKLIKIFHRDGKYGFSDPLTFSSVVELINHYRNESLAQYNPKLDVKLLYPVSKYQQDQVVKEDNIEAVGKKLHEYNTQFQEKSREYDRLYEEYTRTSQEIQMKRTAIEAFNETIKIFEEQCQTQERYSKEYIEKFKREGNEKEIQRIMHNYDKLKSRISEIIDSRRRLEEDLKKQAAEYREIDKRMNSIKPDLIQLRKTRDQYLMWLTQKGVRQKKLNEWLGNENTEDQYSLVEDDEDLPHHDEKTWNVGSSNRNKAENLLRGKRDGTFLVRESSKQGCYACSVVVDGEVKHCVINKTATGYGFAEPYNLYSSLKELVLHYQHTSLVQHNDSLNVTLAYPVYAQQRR

As to `CNC(=O)c1cccc(-c2cc(-c3cccc4[nH]ncc34)nc3c2cnn3C)c1` [Compound 111, 3-(6-(1H-indazol-4-yl)-1-methyl-1H-pyrazolo[3,4-b]pyridine-4-yl)-N-methylbenzamide], the EC50 in assay [1] came out at 2400 nM; in assay [2], 1000 nM.

Turning to `Cn1ncc2c(Oc3ccc(S(C)(=O)=O)cc3)cc(-c3cccc4[nH]ncc34)nc21` [Compound 101, 6-(1H-indazol-4-yl)-1-methyl-4-(4-(methylsulfonyl)phenoxy)-1H-pyrazolo[3,4-b]pyridine], the EC50 in assay [1] stood at 881 nM; in assay [2], 965 nM.

On to `Cn1ncc2c(Oc3ccc(S(C)(=O)=O)cc3)cc(-c3cccc4c(N)noc34)nc21` [Compound 121, 7-(1-methyl-4-(4-(methylsulfonyl)phenoxy)-1H-pyrazolo[3,4-b]pyridin-6-yl)benzo[d]isoxazol-3-amine], for which, in assay [3], the IC50 worked out at 153 nM.

Compound `COc1cccc(Oc2cc(-c3cccc4[nH]ncc34)nc3c2cnn3C)c1` [Compound 107, 6-(1H-indazol-4-yl)-4-(3-methoxyphenoxy)-1-methyl-1H-pyrazolo[3,4-b]pyridine] yielded an IC50 in assay [3] of 53 nM. This IC50 is about 2.9-fold lower than that of the compound before.

With `COc1ccc(Oc2cc(-c3cccc4[nH]ncc34)nc3c2cnn3C)cc1OC` [Compound 108, 4-(3,4-dimethoxyphenoxy)-6-(1H-indazol-4-yl)-1-methyl-1H-pyrazolo[3,4-b]pyridine], the half-inhibitory concentration (IC50) in assay [3] was determined as 16 nM.

Regarding `Cn1ncc2c(Oc3ccc(S(C)(=O)=O)cc3)cc(-c3ccnc(O)c3)nc21` [Compound 120, 4-(1-methyl-4-(4-(methylsulfonyl)phenoxy)-1H-pyrazolo[3,4-b]pyridin-6-yl)pyridin-2-ol], the IC50 in assay [3] is 575 nM.

Regarding `Cn1ncc2c(-c3ccc(S(C)(=O)=O)cc3)cc(-c3cccc4[nH]ncc34)nc21` [Compound 115, 6-(1H-indazol-4-yl)-1-methyl-4-(4-(methylsulfonyl)phenyl)-1H-pyrazolo[3,4-b]pyridine], the EC50 was found to be 750 nM in assay [1] and 346 nM in assay [2].

In the case of `Cn1ncc2c(Nc3ccc(S(C)(=O)=O)cc3)cc(-c3cccc4[nH]ncc34)nc21` [Compound 104, 6-(1H-indazol-4-yl)-1-methyl-N-(4-(methylsulfonyl)phenyl)-1H-pyrazolo[3,4-b]pyridin-4-amine], the IC50 in assay [3] was determined as 2.23 nM. For the same compound, the values for the EC50 in assay [1] and in assay [2] were 2000 nM and 475 nM, respectively.

As to `CCCNc1cc(-c2cccc3[nH]ncc23)nc2c1cnn2C` [Compound 103, 6-(1H-indazol-4-yl)-1-methyl-N-propyl-1H-pyrazolo[3,4-b]pyridin-4-amine], the IC50 in assay [3] was 82.8 nM. This lies in the double-digit nanomolar range.

`COc1ccc(-c2cc(Oc3ccc(S(C)(=O)=O)cc3)c3cnn(C)c3n2)cn1` [Compound 117, 6-(6-methoxypyridin-3-yl)-1-methyl-4-(4-(methylsulfonyl)phenoxy)-1H-pyrazolo[3,4-b]pyridine] displayed an IC50 in assay [3] of 47.5 nM.

`COc1cc(-c2cc(Oc3ccc(S(C)(=O)=O)cc3)c3cnn(C)c3n2)ccn1` [Compound 118, 6-(2-methoxypyridin-4-yl)-1-methyl-4-(4-(methylsulfonyl)phenoxy)-1H-pyrazolo[3,4-b]pyridine]: the EC50 in assay [1] came to 4900 nM; in assay [2], 2400 nM.

For the compound `Cc1cccc(C)c1Oc1cc(-c2cccc3[nH]ncc23)nc2c1cnn2C` [Compound 106, 4-(2,6-dimethylphenoxy)-6-(1H-indazol-4-yl)-1-methyl-1H-pyrazolo[3,4-b]pyridine], the IC50 in assay [3] worked out at 399 nM.

In assay [3], `Cn1ncc2c(Oc3ccc(S(C)(=O)=O)cc3)cc(-c3cccc4c(N)n[nH]c34)nc21` [Compound 105, 7-(1-methyl-4-(4-(methylsulfonyl)phenoxy)-1H-pyrazolo[3,4-b]pyridin-6-yl)-1H-indazol-3-amine] registered an IC50 of 13.7 nM.

Consider `Cn1ncc2c(-c3cccc(NS(C)(=O)=O)c3)cc(-c3cccc4[nH]ncc34)nc21` [Compound 113, N-(3-(6-(1H-indazol-4-yl)-1-methyl-1H-pyrazolo[3,4-b]pyridin-4-yl)phenyl)methanesulfonamide], for which the EC50 amounted to 561 nM in assay [1] and 749 nM in assay [2].

On to `Cn1ncc2c(Oc3ccc(S(C)(=O)=O)cc3)cc(-c3ccc4[nH]ncc4c3)nc21` [Compound 102, 6-(1H-indazol-5-yl)-1-methyl-4-(4-(methylsulfonyl)phenoxy)-1H-pyrazolo[3,4-b]pyridine], for which the IC50 in assay [3] was determined as 224 nM. In other words, the sub-micromolar range.
